Columns and labels:
[1] = tested on: patients suffering from lower leg obliterating vascular diseases; assay: Clinical examination, lower leg obliteration; assay type: in vivo, human patients; conditions: 450 mg/day orally, 10 days; Depogen compared with Trental
Description: (§1) The clinical examinations carried out on patients suffering from lower leg and cerebral obliterating vascular diseases gave the following results: 41 patients were treated for 10 days in a dose of 450 mg/day Depogen or Trental orally (beside 5 healthy controls).

[2] = tested on: patients suffering from cerebral obliterating vascular diseases; assay: EEG examination; assay type: in vivo, human patients; conditions: 450 mg/day orally, 10 days; for EEG deteriorated (number of patients) / EEG improved (number of patients) / EEG unchanged (number of patients): total 9 (Trental), 8 (Depogen)
Description: as §1

[3] = tested on: erythrocytes; assay: In vitro filtrability of erythrocytes (filtration half-time), statements on both erythrocyte types; assay type: cell-based, human; conditions: for filtrability of the erythrocytes (result in words): FIGS. 1 and 2, T1/2 decreased
Description: (§2) For the examination of the in vitro filtrability of the erythrocytes the method of Teitel (Nouv. Rev. Franc. Haematol. 7. 195 (1967)) was used where the filtration rate of concentrated erythrocyte suspension was measured. In the test fresh, normal erythrocytes, fresh in hyperosmotic solution shrunken erythrocytes and erythrocytes stored in CPD blood-conserving solution contracted for 30 days at +4° C. were used. The results are given in FIGS. 1 and 2 (the filtrability of the contracted erythrocytes and that of the erythrocytes stored for 30 days were given as the % of the filtrability of the control fresh, normal erythrocytes.)
(§3) The effect depends in the case of both drugs on the doses. The optimal effect may be achieved with Depogen in lower concentration interval (0.5 to 1.5 μumol) than in case of Trental (5 to 10 μumoles).

[4] = tested on: patients suffering from cerebral obliterating vascular diseases; assay: ECHO examination; assay type: in vivo, human patients; conditions: 450 mg/day orally, 10 days; for ECHO deteriorated (number of patients) / ECHO improved (number of patients) / ECHO unchanged (number of patients): total 9 (Trental), 8 (Depogen)
Description: as §1

[5] = tested on: erythrocytes of patients with lower leg and cerebral obliterating vascular diseases; assay: Erythrocyte filtrability (T1/2) of patients with lower leg and cerebral obliterating vascular diseases after 10 days treatment; assay type: in vivo, human patients; conditions: 450 mg/day orally; for T1/2 average of erythrocyte filtration after treatment: before treatment 18.15 min, healthy control 8.7 min
Description: as §1

[6] = tested on: erythrocytes; conditions: Angiology 36, 4, 226-234 (1985); cited from earlier work
[7] = tested on: extremital vascular resistence; conditions: patients, doses up to 300 mg/day; cited from earlier work
[8] = tested on: patients suffering from cerebral obliterating vascular diseases; assay: Clinical examination, cerebral obliterating vascular disease, symptoms; assay type: in vivo, human patients; conditions: 450 mg/day orally, 10 days
Description: as §1

[9] = tested on: erythrocytes stored for 30 days; assay: In vitro filtrability (filtration half-time T1/2) of erythrocytes stored for 30 days, method of Teitel; assay type: cell-based, human; conditions: from ID50
Description: FIG. 2 is a set of two graphs in which the filtration half-time (T1/2) for erythrocytes stored for 30 days are plotted along the Y-axis as a percentage of the filtration half-time for normal erythrocytes (control) against doses of respectively Trental and Depogen.
as §2, §3

[10] = tested on: contracted (shrunken) erythrocytes; assay: In vitro filtrability (filtration half-time T1/2) of contracted (shrunken) erythrocytes, method of Teitel; assay type: cell-based, human; conditions: from ID50
Description: FIG. 1 is a set of two graphs in which the filtration half-times (T1/2) for contracted (shrunken) erythrocytes are plotted along the Y-axis as a percentage of the filtration half-time for normal erythrocytes (control) against doses of respectively Trental and Depogen.
as §2, §3

SMILES | effect in lower leg obliteration [1] | EEG improved (% of patients) [2] | EEG unchanged (% of patients) [2] | EEG deteriorated (number of patients) [2] | EEG improved (number of patients) [2] | EEG unchanged (number of patients) [2] | filtrability of the erythrocytes (result in words) ([3]; in vitro) | ECHO unchanged (% of patients) [4] | ECHO deteriorated (number of patients) [4] | ECHO improved (number of patients) [4] | ECHO unchanged (number of patients) [4] | filtrability of the erythrocytes after treatment (result in words) [5] | T1/2 average of erythrocyte filtration after treatment [5] | other results
CC(=O)CCCCn1c(=O)c2c(ncn2C)n(C)c1=O [Trental, 3,7-dihydro-3,7-dimethyl-1--(5-oxohexyl)-1H-purine-2,6-dione, reference compound] | the two drugs have the same effect | 44.5% | 55.5% | 0 | 4 | 5 | increase the filtrability of the erythrocytes significantly | 100% | 0 | 0 | 9 | the treatment was also in this case successful | 12.1 min | optimal effect on filtrability, concentration interval ([3]; in vitro, Trental): 5 to 10 μumoles; rheological parameters of the blood, plasticity of the erythrocytes [6]: improves some rheological parameters of the blood, first of all the plasticity of the erythrocytes
CCOc1ccc(CC2=NCCc3cc(OCC)c(OCC)cc32)cc1OCC [Depogen, 1-(3',4'-diethoxybenzyl)-6,7-diethoxy-3,4-dihydroisoquinolinium-theophyllin-7-acetate] | the two drugs have the same effect | 87.5% | 12.5% | 0 | 7 | 1 | increase the filtrability of the erythrocytes significantly | 87.5% | 0 | 1 | 7 | the filtrability of the erythrocytes has been normalized | 9.53 min | peripheral vasodilating effect and extremital vascular resistence [7]: has a peripheral vasodilating effect and decreases the extremital vascular resistence; times lower concentration exerting the same effect as Trental ([3]; in vitro, concentration for the half-maximal effect): 10 to 25 times; optimal effect on filtrability, concentration interval ([3]; in vitro, Depogen): 0.5 to 1.5 μumol; filtrability of pathological human erythrocytes (result in words) ([3]; proved by both ex vitro and in vivo tests): increases the filtrability of the pathological human erythrocytes significantly; effect in cerebral vascular disease, symptoms [8]: the symptoms have decreased; Rel. activity Depogen/Trental [9]: 31.6; Rel. activity Depogen/Trental [10]: 16.3; ECHO improved (% of patients) [4]: 12.5%

Source: US4814336A, “Method of treating a vascular obstructive lesion resulting from restricted blood circulation” (CHINOIN Gyogyszer es Vegyeszeti Termekek Gyara Rt, priority 1985, dated 1989)
